These results are taken from US10357481B2 (MERCK SHARP & DOHME CORP., priority 2015, dated 2019).

Some results are limits rather than exact numbers.

For this experiment, the target named is T1, human PDE2A1 (Homo sapiens, UniProt O00408).
T1 construct: GST; purchased BPS Bioscience (San Diego, Calif.) 60020; host or cells: insect cells
T1 sequence (O00408 1-920 isoform O00408-2): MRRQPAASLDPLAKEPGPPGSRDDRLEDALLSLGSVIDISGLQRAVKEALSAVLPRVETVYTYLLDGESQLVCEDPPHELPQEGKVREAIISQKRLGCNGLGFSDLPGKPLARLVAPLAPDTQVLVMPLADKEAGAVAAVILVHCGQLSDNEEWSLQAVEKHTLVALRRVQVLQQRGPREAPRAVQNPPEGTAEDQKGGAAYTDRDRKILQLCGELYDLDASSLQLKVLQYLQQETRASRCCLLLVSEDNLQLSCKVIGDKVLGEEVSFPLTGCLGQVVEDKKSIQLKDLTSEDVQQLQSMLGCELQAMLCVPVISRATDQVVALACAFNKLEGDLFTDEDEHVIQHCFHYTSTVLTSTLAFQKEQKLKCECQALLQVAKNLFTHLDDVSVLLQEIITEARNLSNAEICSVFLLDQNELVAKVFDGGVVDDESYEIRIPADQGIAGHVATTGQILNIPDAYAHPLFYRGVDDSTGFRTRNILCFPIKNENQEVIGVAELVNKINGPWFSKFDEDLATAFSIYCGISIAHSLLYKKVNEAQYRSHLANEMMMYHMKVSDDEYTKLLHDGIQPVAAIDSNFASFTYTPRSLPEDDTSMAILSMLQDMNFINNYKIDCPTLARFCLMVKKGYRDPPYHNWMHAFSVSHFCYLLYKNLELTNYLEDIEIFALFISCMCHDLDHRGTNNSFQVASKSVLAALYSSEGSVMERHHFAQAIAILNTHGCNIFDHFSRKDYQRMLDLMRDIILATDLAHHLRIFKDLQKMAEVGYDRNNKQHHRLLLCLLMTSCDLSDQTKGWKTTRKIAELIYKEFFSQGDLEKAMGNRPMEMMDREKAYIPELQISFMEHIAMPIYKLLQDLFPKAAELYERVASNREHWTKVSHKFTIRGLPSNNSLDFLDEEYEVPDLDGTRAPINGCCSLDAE
The experiment in a line: IMAP FP PDE selectivity panel, human PDE2A1. The class given is biochemical. The note with it: Lab B; read-out: Human PDE2 Ki (nM) Lab B. The procedure, abridged:
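IMAP FP read-out, run at room temperature in parallel with PDE1–11: enzyme at 20% substrate conversion, 50 nM FAM-cAMP containing 1000 nM cGMP, Tris pH 7.2/MgCl2/DTT buffer. Compounds as ten 3-fold dilutions. Reaction 60 min, stopped with binding reagent for 1 h before polarization measurement.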
With `COCc1cc(N[C@@H](c2ccc(C(F)(F)F)c(F)c2)C(C)(C)C)n2ncnc2n1` [Example 76, N-{(1R)-1-[3-Fluoro-4-(trifluoromethyl)phenyl]-2,2-dimethylpropyl}-5-(methoxymethyl)[1,2,4]triazolo [1,5-a]pyrimidin-7-amine], the Ki was 969 nM. On to `Fc1cc(C2(Nc3cc(C4CC4)nc4ncnn34)CC2)ccc1OC(F)(F)F` [Example 71, 5-Cyclopropyl-N-{1-[3-fluoro-4-(trifluoromethoxy)phenyl]cyclo-propyl}[1,2,4]triazolo[1,5-a]pyrimidin-7-amine], for which the inhibitory constant (Ki) came to 25 nM.

In the case of `COCc1cc(N[C@H](C)c2ccc(C(F)(F)F)c(F)c2)n2ncnc2n1` [Example 77, N-{(1R)-1-[3-Fluoro-4-(trifluoromethyl)phenyl]ethyl}-5-(methoxymethyl)[1,2,4]triazolo [1,5-a]pyrimidin-7-amine], the Ki was roughly 1180 nM. `CC(C)(O)C(Nc1cc(C2CC2)nc2ncnn12)c1ccc(OC(F)(F)F)c(F)c1` (single isomer, unassigned) [Example 140, (1S or R)-1-[(5- Cyclopropyl [1,2,4]triazolo [1,5-a]pyrimidin-7-yl)amino]-1-[3-fluoro-4-(trifluoro-methoxy)phenyl]-2-methylpropan-2-ol]: the Ki is greater than 2960 nM. Under `CC(C)(O)[C@@H](Nc1cc(C(F)F)cc2ncnn12)c1ccc(OC(F)(F)F)cc1F` [Example 281, (1S)-1-{[7-(Difluoromethyl) [1,2,4]triazolo[1,5-a]pyridin-5-yl]amino}-1-[2-fluoro-4-(trifluoromethoxy)phenyl]-2-methylpropan-2-ol] stands 40 nM. For `Cc1cc(NC2(c3ccc(C(F)(F)F)c(F)c3)COC2)n2ncnc2n1` [Example 198, N-(3-(3-Fluoro-4-(trifluoromethyl)phenyl)oxetan-3-yl)-5-methyl-[1,2,4]triazolo [1,5-a]pyrimidin-7-amine], the Ki was determined as 83 nM. In the case of `CC(C)(C)c1cc(NC2(c3ccc(C(F)(F)F)c(F)c3)CC2)n2ncnc2n1` [Example 73], the inhibitory constant (Ki) was found to be 72 nM. For the compound `COc1cc(N[C@@H](c2ccc(C(F)(F)F)c(F)c2)C(C)(C)O)n2ncnc2n1` (single isomer, unassigned) [Example 237], the inhibition constant (Ki) turned out to be 1690 nM. Take `Cc1cc(N[C@H](C)c2ccc(C3CC3)c(F)c2)n2ncnc2n1` [Example 14, N-[(1R)-1-(4-Cyclopropyl-3-fluorophenyl)ethyl]-5-methyl[1,2,4]triazolo[1,5-a] pyrimidin-7-amine]: the inhibition constant (Ki) is 48 nM. Under `Cc1cc(NC2(c3ccc(OC(F)(F)F)c(F)c3)CC2)n2ncnc2n1` [Example 60, N-{1-[3-Fluoro-4-(trifluoromethoxy)phenyl]cyclopropyl}5-methyl-[1,2,4]triazolo[1,5-a]pyrimidin-7-amine] stands 32 nM; under `CC(C)(C)c1cc(NC(c2ccc(C(F)(F)F)cc2)C(C)(C)O)n2ncnc2n1` (stereo in doubt) [Example 158, (1S)-1-[(5-tert-Butyl[1,2,4]triazolo[1,5-a]pyrimidin-7-yl)amino]-2-methyl-1-[4-(trifluoromethyl)phenyl]propan-2-ol], roughly 2340 nM; under `Cc1cc(N[C@H](C)c2ccc(C3(C)CC3)cc2)n2ncnc2n1` [Example 15, 5-Methyl-N-{(1R)-1-[4-(1-methylcyclopropyl)phenyl]ethyl} [1,2,4]triazolo[1,5-a]pyrimidin-7-amine], 173 nM. Under `Cc1cc(O[C@@H](c2ccc(C(F)(F)F)cc2)C(C)(C)C)n2ncnc2n1` (single isomer, unassigned) [Example 260] stands 14 nM; under `Cc1cc(N[C@H](C)c2ccc(C(F)(F)F)cc2)n2ncnc2n1` [Example 1, 5-Methyl-N-{(1R)-1-[4-(trifluoromethyl)phenyl]ethyl}[1,2,4]triazolo[1,5-a]pyrimidin-7-amine], 175 nM. `CC(C)(O)C(Nc1cc(C(F)(F)F)nc2ncnn12)c1ccc(C(F)F)cc1` (single isomer, unassigned) [Example 163, (1S or R)-1-[4-(Difluoromethyl)phenyl]-2-methyl-1-{[5-(trifluoromethyl) [1,2,4]triazolo [1,5-a]pyrimidin-7-yl]amino} propan-2-ol]: the Ki stood at 77 nM.

As for `CC(C)(C)c1cc(NC(c2ccc(OC(F)(F)F)cc2F)C(C)(C)O)n2ncnc2n1` (single isomer, unassigned) [Example 149, (1R or S)-1-[(5-tert-butyl[1,2,4]triazolo[1,5-a]pyrimidin-7-yl)amino]-1-[2-fluoro-4-(trifluoro-methoxy)phenyl]-2-methylpropan-2-ol], the Ki was greater than 2960 nM. On to `CC(C)(O)C(Nc1cc(C(F)F)nc2ncnn12)c1ccc(C(F)(F)F)c(F)c1` (single isomer, unassigned) [Example 227, (R)- or (S)-1-(5-(Difluoromethyl)-[1,2,4]triazolo [1,5-a]pyrimidin-7-ylamino)-1-(3-fluoro-4-(trifluoromethyl)phenyl)-2-methylpropan-2-ol], for which the inhibition constant (Ki) amounted to 7.6 nM.

As to `CC(C)(O)C(Nc1cc(C(F)(F)F)nc2ncnn12)c1ccc2c(c1)OC(F)(F)O2` (single isomer, unassigned) [Example 168, (1R or S)-1-(2,2-Difluoro-1,3-benzodioxol-5-yl)-2-methyl-1-{[5-(trifluoromethyl) [1,2,4]triazolo [1,5-a]pyrimidin-7-yl]amino} propan-2-ol], the inhibition constant Ki is greater than 2960 nM.

Consider `Cc1cc(NC2(c3ccc(SC(F)(F)F)cc3)CC2)n2ncnc2n1` [Example 59, 5-Methyl-N-(1-{4-[(trifluoromethyl)sulfanyl]phenyl}cyclopropyl)[1,2,4]triazolo [1,5-a]pyrimidin-7-amine], for which the Ki turned out to be 72 nM.

Regarding `CC(C)(C)c1cc(NC(c2ccc(OC(F)(F)F)c(F)c2)C(C)(C)O)n2ncnc2n1` (single isomer, unassigned) [Example 147, (1R or S)-1-[(5-tert-Butyl[1,2,4]triazolo[1,5-a]pyrimidin-7-yl)amino]-1-[3-fluoro-4-(trifluoro-methoxy)phenyl]-2-methylpropan-2-ol], the inhibition constant (Ki) was greater than 2960 nM. Under `FCc1cc(NC2(c3ccc(C(F)(F)F)c(F)c3)CC2)n2ncnc2n1` [Example 81, 5-(Fluoromethyl)-N-{1-[3-fluoro-4-(trifluoromethyl)phenyl]cyclopropyl}[1,2,4]triazolo[1,5-a]pyrimidin-7-amine] stands 31 nM; under `Cc1cc(NC(C)(C)c2ccc(OC(F)(F)F)cc2)n2ncnc2n1` [Example 49, 5-Methyl-N-{1-methyl-1-[4-(trifluoromethoxy)phenyl]ethyl} [1,2,4]triazolo[1,5-a]pyrimidin-7-amine], 301 nM. Under `Cc1cc(N[C@@H](c2ccc(OC(F)(F)F)cc2)C(C)(C)C)n2ncnc2n1` [Example 32, N-{(1R)-2,2-Dimethyl-1-[4-(trifluoromethoxy)phenyl]propyl}-5-methyl[1,2,4]triazolo[1,5-a] pyrimidin-7-amine] stands 6.6 nM. Under `Cc1cc(NC(C)(C)c2ccc(C(F)(F)F)cc2Cl)n2ncnc2n1` [Example 47, N-{1-[2-Chloro-4-(trifluoromethyl)phenyl]-1-methylethyl}-5-methyl [1,2,4]triazolo[1,5-a]pyrimidin-7-amine] stands 161 nM; under `Cc1cc(NC(c2ccc(-c3ccccc3)cc2)C(C)(C)O)n2ncnc2n1` (single isomer, unassigned) [Example 127, (1R or S)-1-Biphenyl-4-yl-2-methyl-1-[(5-methyl[1,2,4]triazolo[1,5-a]pyrimidin-7-yl)amino]propan-2-ol], 21 nM; under `CC(C)c1cc(NC(c2ccc(OC(F)(F)F)cc2F)C(C)(C)O)n2ncnc2n1` (single isomer, unassigned) [Example 136, (1S or R)-1-[2-Fluoro-4-(trifluoro-methoxy)phenyl]-2-methyl-1-{[5-(1-methylethyl) [1,2,4]triazolo [1,5-a]pyrimidin-7-yl]amino} propan-2-ol], greater than 2960 nM. Take `CN(C)c1cc(N[C@H](c2ccc(C(F)(F)F)c(F)c2)C(C)(C)O)n2ncnc2n1` (single isomer, unassigned) [Example 243]: the Ki was greater than 2960 nM. Under `Cc1cc(NC(c2ccc(C3(C)CC3)cc2)C(C)(C)O)n2ncnc2n1` (single isomer, unassigned) [Example 120, (1S or R)-2-Methyl-1-[4-(1-methyl-cyclopropyl)phenyl]-1-[(5-methyl[1,2,4]triazolo[1,5-a]pyrimidin-7-yl)amino]propan-2-ol] stands greater than 2960 nM. Under `CCOc1cc(N[C@@H](c2ccc(C(F)(F)F)c(F)c2)C(C)(C)C)n2ncnc2n1` [Example 234, (R)-5-Ethoxy-N-(1-(3-fluoro-4-(trifluoromethyl)phenyl)-2,2-dimethylpropyl)-[1,2,4]triazolo [1,5-a]pyrimidin-7-amine] stands 1230 nM. `Cc1cc(N[C@@H](c2ccc(C(F)(F)F)cc2F)C(C)(C)C)n2ncnc2n1` [Example 34, N-{(1R)-1-[2-Fluoro-4-(trifluoromethyl)phenyl]-2,2-dimethylpropyl}-5-methyl[1,2,4]triazolo[1,5-a] pyrimidin-7-amine]: the inhibition constant (Ki) was 15 nM. As to `Cc1cc(N[C@H](C)c2cc(F)c(C(F)(F)F)cc2F)n2ncnc2n1` [Example 6, N-{(1R)-1-[2,5-Difluoro-4-(trifluoromethyl)phenyl]ethyl}-5-methyl[1,2,4]triazolo[1,5-a] pyrimidin-7-amine], the inhibitory constant (Ki) was 482 nM. Take `Cc1cc(N[C@@H](c2ccc(C(F)(F)F)cc2)C(C)C)n2ncnc2n1` [Example 19, 5-Methyl-N-{(1R)-2-methyl-1-[4-(trifluoromethyl)phenyl]propyl} [1,2,4]triazolo[1,5-a]pyrimidin-7-amine]: the inhibition constant Ki was 36 nM.

With `Cc1cc(NC(C)(C)c2ccc(C(F)(F)F)cc2C)n2ncnc2n1` [Example 54, 5-Methyl-N-{1-methyl-1-[2-methyl-4-(trifluoromethyl)phenyl]ethyl}[1,2,4]triazolo[1,5-a] pyrimidin-7-amine], the inhibition constant Ki was 342 nM.
